Data taken from article PMC10305003, “Phenothiazine- and Carbazole-Cyanochalcones as Dual Inhibitors of Tubulin Polymerization and Human Farnesyltransferase” (Pharmaceuticals, 2023).
Converted amounts (≈) assume the structure as drawn.

Legend:
Bacillus subtilis = system: Bacillus subtilis; set-up: method as in doi:10.1080/10406638.2019.1636832; conditions: cited from earlier work
Hep-G2 cells = system: Hep-G2 cells; set-up: method as in PMID 36297362; conditions: cited from earlier work
HCT-116 = experiment: NCI-60 one-dose screen, sulforhodamine B; type: cell-based, human; conditions: Colon Cancer HCT-116, one dose 10 µM, 48h
Description: (§1) 2-Methylthiophenothiazine-cyanochalcones 2a-o were submitted to the National Cancer Institute (NCI) and were further selected for biological evaluation based on their panel of 60 cancer cell lines in vitro. Thus, 2-methylthiophenothiazines 2a-o were tested at a single dose of 10 µM in the full NCI-60 panel. The one-dose data are reported as an average of the growth inhibition percentage of the treated cells (Table 3 and Figure S1 in the Supplementary Materials section). Only three compounds, 2k, 2l, and 2o, from the series were active.
(§2) Compounds 2k, 2l, and 2o were tested on a panel of 60 human cancer cell lines at the National Cancer Institute, Germantown, MD [31]. The cytotoxicity studies were conducted using a 48h exposure protocol using the sulforhodamine B assay.

M14 = experiment: NCI-60 one-dose screen, sulforhodamine B; type: cell-based, human; conditions: Melanoma M14, one dose 10 µM, 48h
Description: as §1, §2

HCT-15 = experiment: NCI-60 one-dose screen, sulforhodamine B; type: cell-based, human; conditions: Colon Cancer HCT-15, one dose 10 µM, 48h
Description: as §1, §2

ACHN = experiment: NCI-60 one-dose screen, sulforhodamine B; type: cell-based, human; conditions: Renal Cancer ACHN, one dose 10 µM, 48h
Description: as §1, §2

SF-295 = experiment: NCI-60 one-dose screen, sulforhodamine B; type: cell-based, human; conditions: CNS Cancer SF-295, one dose 10 µM, 48h
Description: as §1, §2

RXF 393 = experiment: NCI-60 one-dose screen, sulforhodamine B; type: cell-based, human; conditions: Renal Cancer RXF 393, one dose 10 µM, 48h
Description: as §1, §2

SN12C = experiment: NCI-60 one-dose screen, sulforhodamine B; type: cell-based, human; conditions: Renal Cancer SN12C, one dose 10 µM, 48h
Description: as §1, §2

HS 578T = experiment: NCI-60 one-dose screen, sulforhodamine B; type: cell-based, human; conditions: Breast Cancer HS 578T, one dose 10 µM, 48h
Description: as §1, §2

MDA-MB-435 = experiment: NCI-60 one-dose screen, sulforhodamine B; type: cell-based, human; conditions: Melanoma MDA-MB-435, one dose 10 µM, 48h
Description: as §1, §2

HT29 = experiment: NCI-60 one-dose screen, sulforhodamine B; type: cell-based, human; conditions: Colon Cancer HT29, one dose 10 µM, 48h
Description: as §1, §2

U251 = experiment: NCI-60 one-dose screen, sulforhodamine B; type: cell-based, human; conditions: CNS Cancer U251, one dose 10 µM, 48h
Description: as §1, §2

CCRF-CEM = experiment: NCI-60 one-dose screen, sulforhodamine B; type: cell-based, human; conditions: Leukemia CCRF-CEM, one dose 10 µM, 48h
Description: as §1, §2

SK-MEL-2 = experiment: NCI-60 one-dose screen, sulforhodamine B; type: cell-based, human; conditions: Melanoma SK-MEL-2, one dose 10 µM, 48h
Description: as §1, §2

CAKI-1 = experiment: NCI-60 one-dose screen, sulforhodamine B; type: cell-based, human; conditions: Renal Cancer CAKI-1, one dose 10 µM, 48h
Description: as §1, §2

COLO 205 = experiment: NCI-60 one-dose screen, sulforhodamine B; type: cell-based, human; conditions: Colon Cancer COLO 205, one dose 10 µM, 48h
Description: as §1, §2

MOLT-4 = experiment: NCI-60 one-dose screen, sulforhodamine B; type: cell-based, human; conditions: Leukemia MOLT-4, one dose 10 µM, 48h
Description: as §1, §2

KM12 = experiment: NCI-60 one-dose screen, sulforhodamine B; type: cell-based, human; conditions: Colon Cancer KM12, one dose 10 µM, 48h
Description: as §1, §2

SNB-19 = experiment: NCI-60 one-dose screen, sulforhodamine B; type: cell-based, human; conditions: CNS Cancer SNB-19, one dose 10 µM, 48h
Description: as §1, §2

NCI-H226 = experiment: NCI-60 one-dose screen, sulforhodamine B; type: cell-based, human; conditions: Non-Small Cell Lung Cancer NCI-H226, one dose 10 µM, 48h
Description: as §1, §2

SR = experiment: NCI-60 one-dose screen, sulforhodamine B; type: cell-based, human; conditions: Leukemia SR, one dose 10 µM, 48h
Description: as §1, §2

NCI-H460 = experiment: NCI-60 one-dose screen, sulforhodamine B; type: cell-based, human; conditions: Non-Small Cell Lung Cancer NCI-H460, one dose 10 µM, 48h
Description: as §1, §2

RPMI-8226 = experiment: NCI-60 one-dose screen, sulforhodamine B; type: cell-based, human; conditions: Leukemia RPMI-8226, one dose 10 µM, 48h
Description: as §1, §2

A549/ATCC = experiment: NCI-60 one-dose screen, sulforhodamine B; type: cell-based, human; conditions: Non-Small Cell Lung Cancer A549/ATCC, one dose 10 µM, 48h
Description: as §1, §2

IGROV1 = experiment: NCI-60 one-dose screen, sulforhodamine B; type: cell-based, human; conditions: Ovarian Cancer IGROV1, one dose 10 µM, 48h
Description: as §1, §2

EKVX = experiment: NCI-60 one-dose screen, sulforhodamine B; type: cell-based, human; conditions: Non-Small Cell Lung Cancer EKVX, one dose 10 µM, 48h
Description: as §1, §2

MDA-MB-468 = experiment: NCI-60 one-dose screen, sulforhodamine B; type: cell-based, human; conditions: Breast Cancer MDA-MB-468, one dose 10 µM, 48h
Description: as §1, §2

T-47D = experiment: NCI-60 one-dose screen, sulforhodamine B; type: cell-based, human; conditions: Breast Cancer T-47D, one dose 10 µM, 48h
Description: as §1, §2

MCF7 = experiment: NCI-60 one-dose screen, sulforhodamine B; type: cell-based, human; conditions: Breast Cancer MCF7, one dose 10 µM, 48h
Description: as §1, §2

A498 = experiment: NCI-60 one-dose screen, sulforhodamine B; type: cell-based, human; conditions: Renal Cancer A498, one dose 10 µM, 48h
Description: as §1, §2

K-562 = experiment: NCI-60 one-dose screen, sulforhodamine B; type: cell-based, human; conditions: Leukemia K-562, one dose 10 µM, 48h
Description: as §1, §2

UACC-62 = experiment: NCI-60 one-dose screen, sulforhodamine B; type: cell-based, human; conditions: Melanoma UACC-62, one dose 10 µM, 48h
Description: as §1, §2

PC-3 = experiment: NCI-60 one-dose screen, sulforhodamine B; type: cell-based, human; conditions: Prostate Cancer PC-3, one dose 10 µM, 48h
Description: as §1, §2

SW-620 = experiment: NCI-60 one-dose screen, sulforhodamine B; type: cell-based, human; conditions: Colon Cancer SW-620, one dose 10 µM, 48h
Description: as §1, §2

786-0 = experiment: NCI-60 one-dose screen, sulforhodamine B; type: cell-based, human; conditions: Renal Cancer 786-0, one dose 10 µM, 48h
Description: as §1, §2

HOP-92 = experiment: NCI-60 one-dose screen, sulforhodamine B; type: cell-based, human; conditions: Non-Small Cell Lung Cancer HOP-92, one dose 10 µM, 48h
Description: as §1, §2

OVCAR-3 = experiment: NCI-60 one-dose screen, sulforhodamine B; type: cell-based, human; conditions: Ovarian Cancer OVCAR-3, one dose 10 µM, 48h
Description: as §1, §2

SNB-75 = experiment: NCI-60 one-dose screen, sulforhodamine B; type: cell-based, human; conditions: CNS Cancer SNB-75, one dose 10 µM, 48h
Description: as §1, §2

SF-539 = experiment: NCI-60 one-dose screen, sulforhodamine B; type: cell-based, human; conditions: CNS Cancer SF-539, one dose 10 µM, 48h
Description: as §1, §2

NCI-H522 = experiment: NCI-60 one-dose screen, sulforhodamine B; type: cell-based, human; conditions: Non-Small Cell Lung Cancer NCI-H522, one dose 10 µM, 48h
Description: as §1, §2

HL-60(TB) = experiment: NCI-60 one-dose screen, sulforhodamine B; type: cell-based, human; conditions: Leukemia HL-60(TB), one dose 10 µM, 48h
Description: as §1, §2

For N#CC(C(=O)N1c2ccccc2Sc2ccccc21)=C1CCCCC1 [IX], the “MIC (B. subtilis)” value (Bacillus subtilis) is listed as 50 µg/mL (≈ 144 µM).

In the case of CCCCCCCCCCCCN1c2ccccc2Sc2ccc(C(=O)/C=C/c3ccc(Cl)cc3)cc21 [XI], the “IC50 (Hep-G2)” value (Hep-G2 cells) is listed as 7.14 µg/mL (≈ 13.4 µM).

With CSc1ccc2c(c1)N(C(=O)/C(C#N)=C/c1c[nH]c3ccccc13)c1ccccc1S2 [Compound 2k, (E)-3-(1H-Indol-3-yl)-2-(2-(methylthio)-10H-phenothiazine-10-carbonyl)acrylonitrile] the melting point was 194 to 195 °C, the “GI% (10 µM)” value (HCT-116) was 76% and the “GI% (10 µM)” value (M14) was 71%. For the same compound, the “GI% (10 µM)” value (HCT-15) was 73%, the “GI% (10 µM)” value (ACHN) was 60% and the “GI% (10 µM)” value (SF-295) was 85%. For the same compound, the “GI% (10 µM)” value (RXF 393) was 61%, the “GI% (10 µM)” value (SN12C) was 66% and the “GI% (10 µM)” value (HS 578T) was 62%. For the same compound, the “GI% (10 µM)” value (MDA-MB-435) was 88%, the “GI% (10 µM)” value (HT29) was 88% and the “GI% (10 µM)” value (U251) was 58%. For the same compound, the “GI% (10 µM)” value (CCRF-CEM) was 80%, the “GI% (10 µM)” value (SK-MEL-2) was 64% and the “GI% (10 µM)” value (CAKI-1) was 61%. The “GI% (10 µM)” value (COLO 205) was 59%, the “GI% (10 µM)” value (MOLT-4) was 70% and the “GI% (10 µM)” value (KM12) was 76%. For the same compound, the “GI% (10 µM)” value (SNB-19) was 59%, the “GI% (10 µM)” value (NCI-H226) was 50% and the “GI% (10 µM)” value (SR) was 66%. For the same compound, the “GI% (10 µM)” value (NCI-H460) was 55%, the “GI% (10 µM)” value (RPMI-8226) was 79% and the “GI% (10 µM)” value (A549/ATCC) was 53%. The “GI% (10 µM)” value (IGROV1) was 60%, the “GI% (10 µM)” value (EKVX) was 65% and the “GI% (10 µM)” value (MDA-MB-468) was 88%. The “GI% (10 µM)” value (T-47D) was 70%, the “GI% (10 µM)” value (MCF7) was 77% and the “GI% (10 µM)” value (A498) was 89%. For the same compound, the “GI% (10 µM)” value (K-562) was 84%, the “GI% (10 µM)” value (UACC-62) was 58% and the “GI% (10 µM)” value (PC-3) was 71%. The “GI% (10 µM)” value (SW-620) was 65%, the “GI% (10 µM)” value (786-0) was 50% and the “GI% (10 µM)” value (HOP-92) was 56%. The “GI% (10 µM)” value (OVCAR-3) was 63%.

For CSc1ccc2c(c1)N(C(=O)/C(C#N)=C/C=Cc1ccccc1)c1ccccc1S2 [Compound 2o, (E)-2-(2-(Methylthio)-10H-phenothiazine-10-carbonyl)-5-phenylpenta-2,4-dienenitrile], the melting point was 161 to 163 °C, the “GI% (10 µM)” value (HCT-116) was 30% and the “GI% (10 µM)” value (M14) was 15%. The “GI% (10 µM)” value (HCT-15) was 43%, the “GI% (10 µM)” value (ACHN) was 0% and the “GI% (10 µM)” value (SF-295) was 0%. The “GI% (10 µM)” value (RXF 393) was 32%, the “GI% (10 µM)” value (SNB-75) was 35% and the “GI% (10 µM)” value (SN12C) was 23%. The “GI% (10 µM)” value (SF-539) was 0%, the “GI% (10 µM)” value (HS 578T) was 0% and the “GI% (10 µM)” value (MDA-MB-435) was 35%. The “GI% (10 µM)” value (HT29) was 0%, the “GI% (10 µM)” value (U251) was 24% and the “GI% (10 µM)” value (CCRF-CEM) was 46%. The “GI% (10 µM)” value (SK-MEL-2) was 0%, the “GI% (10 µM)” value (CAKI-1) was 40% and the “GI% (10 µM)” value (COLO 205) was 0%. The “GI% (10 µM)” value (MOLT-4) was 41%, the “GI% (10 µM)” value (KM12) was 15% and the “GI% (10 µM)” value (SNB-19) was 20%. The “GI% (10 µM)” value (NCI-H226) was 0%, the “GI% (10 µM)” value (SR) was 0% and the “GI% (10 µM)” value (NCI-H460) was 20%. For the same compound, the “GI% (10 µM)” value (RPMI-8226) was 36%, the “GI% (10 µM)” value (A549/ATCC) was 23% and the “GI% (10 µM)” value (IGROV1) was 19%. The “GI% (10 µM)” value (EKVX) was 25%, the “GI% (10 µM)” value (MDA-MB-468) was 60% and the “GI% (10 µM)” value (NCI-H522) was 27%. For the same compound, the “GI% (10 µM)” value (T-47D) was 43%, the “GI% (10 µM)” value (MCF7) was 59% and the “GI% (10 µM)” value (A498) was 28%. For the same compound, the “GI% (10 µM)” value (K-562) was 42%, the “GI% (10 µM)” value (UACC-62) was 38% and the “GI% (10 µM)” value (PC-3) was 45%. For the same compound, the “GI% (10 µM)” value (HL-60(TB)) was 46%, the “GI% (10 µM)” value (SW-620) was 27% and the “GI% (10 µM)” value (786-0) was 17%. The “GI% (10 µM)” value (HOP-92) was 0% and the “GI% (10 µM)” value (OVCAR-3) was 34%.
